From US12344612B2, “Bicyclic ketone compounds and methods of use thereof” (Genentech, Inc., priority 2019, dated 2025)
pKi: −log10 of the molar value.

Biological target: human RIP1 kinase domain (2-375) (Homo sapiens (Human), UniProt Q13546)
Test: RIP1 kinase inhibition biochemical assay (Transcreener ADP, fluorescence polarization)
Details: apparent Ki (Morrison tight-binding fit); 50 nM enzyme, 50 μM ATP, 2 hours incubation
Description: RIP1 Kinase Inhibition Assays (Biochemical Assay)
The compounds of the present invention were tested for their capacity to inhibit RIP1K activity as described below.
The ability of the receptor interacting protein kinase (RIPK1) to catalyze the hydrolysis of adenosine-5′-triphosphate (ATP) is monitored using the Transcreener ADP (adenosine-5′-diphosphate) assay (BellBrook Labs). Purified human RIP1 kinase domain (2-375) (50 nM) derived from a baculovirus-infected insect cell expression system is incubated with test compounds for 2 hours in 50 mM Hepes buffer (pH 7.5) containing 30 mM MgCl2, 1 mM dithiothreitol, 50 μM ATP, 0.002% Brij-35, and 0.5% dimethyl sulfoxide (DMSO). Reactions are quenched by the addition of 1× Bell Brooks Stop buffer B (20 mM Hepes (ph7.5), 40 mM ethylenediaminetetraacetic acid and 0.02% Brij-35) containing an additional 12 mM EDTA and 55 ug/mL ADP2 antibody and 4 nM ADP-AlexaFluor® 633 tracer. The tracer bound to the antibody is displaced by the ADP generated during the RIP1K reaction, which causes a decrease in fluorescence polarization that is measured by laser excitation at 633 nm with a FP microplate reader M1000. Fractional activity was plotted against test article concentration. Using Genedata Screener software (Genedata; Basel, Switzerland), the data were fit to the tight-binding apparent inhibition constant (Ki^app) Morrison equation [Williams, J. W. and Morrison, J. F. (1979) The kinetics of reversible tight-binding inhibition. Methods Enzymol 63: 437-67]. The following equation was used to calculate fractional activity and Ki^app:
[formula] where [E]T and [I]T are the total concentrations of active enzyme and test article, respectively.
Exemplary compounds of the present invention are provided in Table 1 along with their physiochemical characterization and in vitro RIP1 kinase inhibitory activity data. “Method” in the first column of each table refers to the synthetic method(s) used to prepare each compound as shown in the Examples above.

Sequence of human RIP1 kinase domain (2-375) (Q13546 2-375): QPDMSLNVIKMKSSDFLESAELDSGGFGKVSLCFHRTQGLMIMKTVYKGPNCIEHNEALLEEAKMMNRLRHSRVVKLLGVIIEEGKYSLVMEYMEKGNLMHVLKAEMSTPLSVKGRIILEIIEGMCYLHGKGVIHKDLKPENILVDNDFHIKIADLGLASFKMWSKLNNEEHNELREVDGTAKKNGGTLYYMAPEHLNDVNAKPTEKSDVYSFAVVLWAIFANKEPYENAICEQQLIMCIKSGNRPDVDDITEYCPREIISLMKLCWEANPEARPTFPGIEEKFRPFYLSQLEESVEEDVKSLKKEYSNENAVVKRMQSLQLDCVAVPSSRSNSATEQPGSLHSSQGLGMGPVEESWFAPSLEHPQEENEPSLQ

Row | pKi | Compound
1 | 7.55 | N#Cc1cccc([C@@H]2C[C@H](F)c3nc(C(=O)C4CC4)nn32)c1 (single isomer, unassigned) [Example 8]
2 | 6.89 | CC(=O)N1CC(C(=O)c2nc3n(n2)[C@H](c2ccccc2)C[C@@H]3F)C1 (single isomer, unassigned) [Example 7]
3 | 8.05 | O=C(c1nc2n(n1)[C@H](c1cncc(F)c1)C[C@@H]2F)C1CC1 (single isomer, unassigned) [Example 1]
4 | 8.19 | O=C(c1nc2n(n1)[C@H](c1cccc(Cl)c1)C[C@@H]2F)C1CC1 (single isomer, unassigned) [Example 9]

More lines, now with the values behind:

Row | Compound | pKi
5 | CC1(C)OCC2CC21C(=O)c1nc2n(n1)[C@H](c1ccccc1)C[C@@H]2F (mixture of isomers) [Example 3, (2,2-dimethyl-3-oxabicyclo[3.1.0]hexan-1-yl)-[rac-(5S,7S)-7-fluoro-5-phenyl-6,7-dihydro-5H-pyrrolo[1,2-b][1,2,4]triazol-2-yl]methanone] | 7.08
6 | CC(C)(CO)C(=O)c1nc2n(n1)[C@H](c1ccccc1)C[C@@H]2F [Example 4, 3-hydroxy-2,2-dimethyl-1-((5S,7S)-7-fluoro-5-phenyl-6,7-dihydro-5H-pyrrolo[1,2-b][1,2,4]triazol-2-yl)propan-1-one] | 7.51
7 | O=C(c1nc2n(n1)[C@@H](c1cncc(F)c1)C[C@H]2F)C1CC1 (single isomer, unassigned) [Example 2] | < 5.00
8 | CC(C)(COC(F)F)C(=O)c1nc2n(n1)[C@H](c1ccccc1)C[C@@H]2F [Example 5, 3-(difluoromethoxy)-2,2-dimethyl-1-((5S,7S)-7-fluoro-5-phenyl-6,7-dihydro-5H-pyrrolo[1,2-b][1,2,4]triazol-2-yl)propan-1-one] | > 8.30
9 | CCC(=O)c1nc2n(n1)[C@H](c1cnn(C)c1)C[C@@H]2F (single isomer, unassigned) [Example 6] | 7.60
